Results as given in patent publication US20250090475A1, “DRUG-LOADED AMINO ACID BASED POLY (ESTERUREA)FILMS FOR CONTROLLED LOCAL RELEASE OF NON-OPIOID ANALGESIC COMPOUNDS” (MERK SHARP & DOHME CORP., priority 2020, published 2025).

Columns and labels:
[1] = In vitro etoricoxib release from PEU films, USP Apparatus 7, PBS; format: physicochemical; conditions: about 6 mg in USP 7, PBS, n=3
[2] = Etoricoxib solubility in the release media; format: physicochemical; conditions: used in Higuchi equation
Procedure: D=(slope/A)^2/2CCs • Where the slope is the amount of drug released at time t divided by the square root of time, A is the area of the film, C is the initial drug concentration (or the drug-load in the polymer), CS is the drug solubility in the media (0.5 mg/mL) and D is the diffusivity constant. This constant not only indicates the mobility of the drug from the film into the media, but also can be used to calculate for the time of total release using the maximum amount of drug within the film (Table 11).

[3] = 90 mg etoricoxib dosed patients in comparison to diclofenac at 150 mg; oral; cited from earlier work

time at which free drug release reached a plateau [1]: ~1 days
drug solubility in the media (CS) [2]: 0.5 mg/mL
SMILES: Cc1ccc(-c2ncc(Cl)cc2-c2ccc(S(C)(=O)=O)cc2)cn1 [etoricoxib]
gastrointestinal events [3]: decrease in gastrointestinal events
risk of edema and hypertension [3]: dose-dependent increased risk
